What was measured:
[1] = test system: Promega Mid-Range Molecular Weight Markers; test: Detection of proteins during SDS-PAGE electrophoresis (dye in cathode buffer)
Excerpt: Solutions for the formation and electrophoresis of proteins were made according to the instructions given in Experiments in Gene Fusions, Silhavy, Berman, Enquist, Cold Spring Harbor Laboratory Press, Cold Spring Harbor, N.Y. with the following changes:
a) The SDS concentration in the upper and lower gel buffer components were reduced to result in a 0.05% final SDS concentration in the gel. Thus, the composition of 4× upper gel buffer was 0.5M Tris-HCl, pH 6.8, 0.2 % (w/v) sodium dodecylsulfate (SDS) and the composition of 4× lower gel buffer was 1.5M Tris-HCl, pHS.8, 0.2 % (w/v) SDS.
b) The SDS concentration in the electrophoretic (electrode) buffer was reduced to 0.04% final concentration. Thus, 4× electrode (anode or cathode) buffer was made by dissolving 60 g Tris base, 288 g glycine, and 8 g SDS dissolved in water and then diluting with water to 5 liters. Another name sometimes used for "electrode" buffer is "running" buffer.
c) The SDS concentration in the 2× sample buffer was reduced to 1% final SDS concentration. Thus, 2× sample buffer was made by mixing 0.5 ml of betamercaptoethanol, 0.25 ml of 0.1% (w/v) bromophenol blue, 1 ml of 10 % (w/v) SDS, 3 ml of water, and 5.3 ml of 2× glycerol buffer. 2× glycerol buffer is made by mixing 12.5 ml of 4× upper gel buffer and 20 ml of glycerol and diluting the resulting solution to 60 ml with water. Another name sometimes used for "sample" buffer is "loading" buffer.
d) Electrophoresis was performed using a BIO-RAD miniprotein II electrophoresis apparatus and gels were poured such that i cm of space was present between the bottom of the loading wells and the separating gel.
In other electrophoresis experiments reported in this application, the buffers used were as described above in this example. In some cases, as in this example, where preparation of a solution of dye in 150 ml of cathode (or electrode) buffer is specified, an amount of stock solution of a dye was first added to 150 ml of cathode buffer and then 125 ml of the resulting solution was used to fill the cathode buffer chamber (which holds 125 ml) in the electrophoresis apparatus. In other cases, where addition of stock solution of dye to the cathode buffer is specified without reference to the volume of cathode buffer or with reference to such volume being "125 ml," the stock solution was added directly to 125 ml of cathode buffer already in the cathode buffer chamber.
The samples used were prepared with Promega Mid-Range Molecular Weight Markers solution (Promega Corp., Madison, Wis., USA, Catalog No. V5231) (referred to hereinafter as "Promega Mid-Range [Molecular Weight] Markers or Standards") diluted into Sample Buffer. […]

[2] = test system: protein (BSA); test: Sensitive solution protein quantitation assay; design: species or system bovine; details: 0.5M tris base, 3 hours
Description: In order to conclusively determine a format for the sensitive quantitation of protein in solution using Promega Green 1, Promega Green 1 stock solution was diluted at ratios of 1:250 (v/v) and 1:1000 (v/v) into 0.5M tris base containing 0, 5, 10, 20, 40, 60, 80, and 100 μg protein (BSA) per ml of solution. […]

[3] = test system: Promega Mid-Range Molecular Weight Standards; test: In-situ staining of proteins during transfer to immobilizing supports
Description: The use of immobilizing supports such as nitrocellulose, nylon, glass or polyvinyl difluoride has become very common in the immunochemical or sequence analysis of proteins. […] Two Whatman 3 mM sheets were soaked in transfer buffer and these components were then used to construct a transfer sandwich composed of one sheet of Whatman paper, the SDS-PAGE gel, the Immobilon sheet, and the final sheet of Whatman. The sandwich was placed in a Hoeffer transfer apparatus and oriented in the apparatus such that the Immobilon side of the sandwich was oriented toward the positive electrode. The apparatus was placed at 4° C. and 10 V were applied to the apparatus for 30 minutes then the voltage was increased to 30 V for an additional 120 minutes.
The Immobilon membrane was then soaked in 45% methanol, 5% acetic acid for 2 minutes.

For CCCCCCCC(=O)N(c1ccc(OCC)cc1)c1ccc(C(=C2C=CC(=[N+](CC)Cc3cccc(S(=O)(=O)[O-])c3)C=C2)c2ccc(N(CC)Cc3cccc(S(=O)(=O)O)c3)cc2)cc1 [Promega Green 1], the “lowest protein amount per band visible while the gel was running” value ([1]; 10% SDS-PAGE, dye in cathode buffer, white plastic card behind gel) was 1.0 µg, the “lowest protein amount per band visible by the end of the run (most of the bands)” value ([1]; essentially clear background) was 0.5 µg and the Absorption ([2]; dye 1:250, protein 0 μg/ml) was 0.543. The Absorption ([2]; dye 1:250, protein 5 μg/ml) was 0.515, the Absorption ([2]; dye 1:250, protein 10 μg/ml) was 0.472 and the Absorption ([2]; dye 1:250, protein 20 μg/ml) was 0.427. The Absorption ([2]; dye 1:250, protein 40 μg/ml) was 0.386, the Absorption ([2]; dye 1:250, protein 60 μg/ml) was 0.358 and the Absorption ([2]; dye 1:250, protein 80 μg/ml) was 0.342. For the same molecule, the Absorption ([2]; dye 1:250, protein 100 μg/ml) was 0.317, the Absorption ([2]; dye 1:1000, protein 0 μg/ml) was 0.079 and the Absorption ([2]; dye 1:1000, protein 5 μg/ml) was 0.069. The Absorption ([2]; dye 1:1000, protein 10 μg/ml) was 0.059, the Absorption ([2]; dye 1:1000, protein 20 μg/ml) was 0.051 and the Absorption ([2]; dye 1:1000, protein 40 μg/ml) was 0.048. It also gave an Absorption ([2]; dye 1:1000, protein 60 μg/ml) of 0.047, an Absorption ([2]; dye 1:1000, protein 80 μg/ml) of 0.044 and an Absorption ([2]; dye 1:1000, protein 100 μg/ml) of 0.043. For the same molecule, the “visibility of bands on membrane after enhancement” value ([3]; 45% methanol, 5% acetic acid, 2 minutes) was “the protein band at all concentrations became easily visible” and the “lowest protein per band visible on Immobilon membrane after transfer” value ([3]; before enhancement) was 1.0 µg.
